In patent US20210078958A1, “QUINAZOLINE DERIVATIVE AND USE THEREOF” (MEDSHINE DISCOVERY INC., priority 2017, published 2021):
Like-named read-outs stand apart in the source and are kept apart here.

Legend:
[1] = molecular target: HER4 (ErbB4) (Homo sapiens, UniProt Q15303); test: in vitro enzyme activity, HER4 (ErbB4); assay type: biochemical; settings: human ErbB4, [γ-33P]ATP, poly(Glu, Tyr) substrate
Experimental: The purpose of this assay is to detect the in vitro inhibitory activity of compounds on HER1 (ErbB1), HER2 (ErbB2), and HER4 (ErbB4). The enzymes used in this assay are human ErbB1, ErbB2 and ErbB4. Eurofins Pharma Discovery Service provided the method for activity detection.
Steps and Method of the Assay (96-Well Plate):
A buffer solution of the test compounds in a dilution of 5-fold (5 μL), polypeptide substrate poly(Glu, Tyr) (4:1) (2.5 μL), ErbB (4-20 ng, 2.5 μL), MnCl2 (50 mM, 1.25 μL), dH2O (3.75 μL), and [γ-^33P]ATP (10 μL) were added, and incubated at 30° C. for 10 minutes. The reaction was terminated by adding 3% phosphoric acid. 10 μL of the sample was taken and transferred to Filtermate A. The filter disc was washed 3 times with 75 mM phosphoric acid and once with methanol. The filter disc was transferred to a sealed plastic bag and the scintillation mixture (4 mL) was added. The intensity of the emitted photon was detected by a scintillation luminescence counter. The CPM (times/min) of the enzyme sample was compared with the CPM of the internal control sample. The level of photon intensity reflected the degree of the tyrosine kinase activity.

[2] = Assay Example 7: pharmacokinetics in mice; assay type: in vivo; settings: mouse, female BALB/c mice, plasma, dose not given; for Tmax / half-life: oral; for AUC(0-t) / Cmax: oral plasma exposure
Experimental: Purpose of the assay: this assay aims to investigate in vivo plasma pharmacokinetics of the example compounds disclosed herein and the reference compound in female BALB/c mice after the single intravenous injection and intragastric administration thereof.
Animals of the assay: female BALB/c nude mice, 7-9 weeks old, weighted 17-23 grams; supplier: shanghai sippr bk laboratory animals Ltd.
Sample collection: at each time point, a 0.03 mL blood sample was collected from the saphenous vein of the test animal by puncture, and the actual blood collection time was recorded. All blood samples were added into commercial EDTA-K2 anticoagulation tubes with a specification of 1.5 mL (the supplier was Jiangsu KANGJIAN Medical Apparatus Co., Ltd.). Within half an hour after the blood sample was collected, the blood sample was centrifuged at 3000 g at 4° C. for 10 minutes, and the supernatant plasma was drawn, quickly placed in dry ice, and stored in a refrigerator at −80° C. for LC-MS/MS analysis.
Data analysis: Plasma concentrations were processed using a non-compartmental model of WinNonlin™ Version6.3 (Pharsight, MountainView, Calif.) pharmacokinetic software, and pharmacokinetic parameters Cmax, Tmax, T1/2, and AUC0-last were calculated using a linear log trapezoid method.

[3] = system: subcutaneous xenograft tumor of human esophageal carcinoma OE21 cells; assay type: in vivo; settings: 2/1.5 mg/kg; for Tumor volume (mm3) (Day 21): OE21 xenograft, Mean + SEM; for T/C (%) / TGI (%): day 21
Experimental: Purpose of the assay: to evaluate the in vivo efficacy of the compounds to be tested on subcutaneous xenograft tumor of human esophageal carcinoma OE21 cells in a BALB/c nude mouse model.
Animals of the assay: female BALB/c nude mice, 6-8 weeks old, weighing 17-23 grams; supplier: shanghai sippr bk laboratory animals Ltd.
Human esophageal carcinoma OE21 cells were cultured in monolayer in vitro. The culture conditions were RPMI-1640 medium plus 10% fetal bovine serum, 100 U/mL penicillin, 100 U/mL streptomycin and 2 mM glutamine, 37° C., 5% CO2. The passaging was performed by conventional digestion with trypsin-EDTA twice a week. When the cell saturation was 80%-90%, the cells were collected, counted and inoculated.
0.1 ml […] OE21 cells (PBS) were inoculated subcutaneously on the right back of each mouse. When the average tumor volume reached 112 mm^3, administration to each group was started.
The test compound was formulated into a 0.15 mg/mL to 0.3 mg/mL clear or suspension solution in the solvents of 10% NMP+10% ethylene glycol stearate+80% water. 6.4 Tumor measurement and assay index
The assay index is to investigate whether tumor growth is inhibited, delayed or cured. Tumor diameter was measured twice a week with vernier caliper. The calculation formula of tumor volume is: V=0.5a×b^2, wherein a and b represent the long and short diameters of tumor, respectively.
The antitumor efficacy of the compounds were evaluated by TGI (%) or relative tumor proliferation rate T/C (%). TGI (%) reflects the tumor growth inhibition rate. TGI (%) is calculated as follows: TGI (%)=[(1−(average tumor volume at the end of administration for a certain treatment group−average tumor volume at the beginning of administration for this treatment group))/(average tumor volume at the end of treatment for a solvent control group−average tumor volume at the beginning of administration for this solvent control group)]×100%.
Relative tumor proliferation rate T/C (%): the calculation formula is as follows: T/C (%)=average tumor volume at the end of administration for a certain treatment group/average tumor volume at the end of treatment for the solvent control group×100%.
Statistical analysis included the mean and standard error (SEM) of tumor volume at each time point in each group. One-way ANOVA was used for comparison among three or more groups. […] SPSS 17.0 was used for all data analysis. p<0.05 is considered a significant difference.

[4] = molecular target: T1, CYP3A4 (Homo sapiens, UniProt P08684); test: inhibition of CYP enzyme activity in human liver microsome, CYP3A4; assay type: in vitro ADME
T1 construct: in the assay of CYP enzyme activity in human liver microsome; from tissue; host or cells: human liver microsome
Text: (§1) The results of the compounds disclosed herein and the reference compound Poziotinib in the assay of CYP enzyme activity in human liver microsome were shown in the following table (Table 8).

[5] = molecular target: T2, CYP1A2 (Homo sapiens, UniProt P05177); test: inhibition of CYP enzyme activity in human liver microsome, CYP1A2; assay type: in vitro ADME
T2 construct: in the assay of CYP enzyme activity in human liver microsome; from tissue; host or cells: human liver microsome
T2 sequence (P05177 1-516): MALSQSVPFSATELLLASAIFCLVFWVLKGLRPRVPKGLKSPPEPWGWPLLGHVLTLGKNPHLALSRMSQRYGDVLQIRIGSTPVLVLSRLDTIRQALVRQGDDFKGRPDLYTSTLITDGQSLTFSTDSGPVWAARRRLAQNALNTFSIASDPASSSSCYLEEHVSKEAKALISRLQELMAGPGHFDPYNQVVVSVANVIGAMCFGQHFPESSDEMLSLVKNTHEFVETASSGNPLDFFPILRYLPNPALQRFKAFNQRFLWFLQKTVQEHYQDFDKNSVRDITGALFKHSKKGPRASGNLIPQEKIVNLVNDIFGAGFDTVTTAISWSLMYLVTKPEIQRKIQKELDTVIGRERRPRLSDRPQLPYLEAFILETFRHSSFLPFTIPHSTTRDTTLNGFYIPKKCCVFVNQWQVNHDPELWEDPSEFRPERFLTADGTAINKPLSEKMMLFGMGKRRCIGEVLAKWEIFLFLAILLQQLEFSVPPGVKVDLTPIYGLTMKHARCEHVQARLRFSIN
Text: as §1

T1 sequence (P08684 whole entry): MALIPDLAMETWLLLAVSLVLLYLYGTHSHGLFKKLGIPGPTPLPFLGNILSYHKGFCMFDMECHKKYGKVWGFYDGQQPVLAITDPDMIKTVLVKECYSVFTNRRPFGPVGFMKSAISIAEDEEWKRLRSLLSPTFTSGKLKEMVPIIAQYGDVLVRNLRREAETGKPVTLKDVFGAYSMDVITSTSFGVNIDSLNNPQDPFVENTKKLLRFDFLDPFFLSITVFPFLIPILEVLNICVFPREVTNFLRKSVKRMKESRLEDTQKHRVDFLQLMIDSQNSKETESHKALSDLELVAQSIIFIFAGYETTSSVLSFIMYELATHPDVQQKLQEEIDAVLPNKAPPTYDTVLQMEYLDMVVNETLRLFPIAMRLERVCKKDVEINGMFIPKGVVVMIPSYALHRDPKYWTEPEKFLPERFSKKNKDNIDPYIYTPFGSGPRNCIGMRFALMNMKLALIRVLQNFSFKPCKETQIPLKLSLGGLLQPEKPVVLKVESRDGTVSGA
Chain of HER4 (ErbB4) (Q15303 26-1308): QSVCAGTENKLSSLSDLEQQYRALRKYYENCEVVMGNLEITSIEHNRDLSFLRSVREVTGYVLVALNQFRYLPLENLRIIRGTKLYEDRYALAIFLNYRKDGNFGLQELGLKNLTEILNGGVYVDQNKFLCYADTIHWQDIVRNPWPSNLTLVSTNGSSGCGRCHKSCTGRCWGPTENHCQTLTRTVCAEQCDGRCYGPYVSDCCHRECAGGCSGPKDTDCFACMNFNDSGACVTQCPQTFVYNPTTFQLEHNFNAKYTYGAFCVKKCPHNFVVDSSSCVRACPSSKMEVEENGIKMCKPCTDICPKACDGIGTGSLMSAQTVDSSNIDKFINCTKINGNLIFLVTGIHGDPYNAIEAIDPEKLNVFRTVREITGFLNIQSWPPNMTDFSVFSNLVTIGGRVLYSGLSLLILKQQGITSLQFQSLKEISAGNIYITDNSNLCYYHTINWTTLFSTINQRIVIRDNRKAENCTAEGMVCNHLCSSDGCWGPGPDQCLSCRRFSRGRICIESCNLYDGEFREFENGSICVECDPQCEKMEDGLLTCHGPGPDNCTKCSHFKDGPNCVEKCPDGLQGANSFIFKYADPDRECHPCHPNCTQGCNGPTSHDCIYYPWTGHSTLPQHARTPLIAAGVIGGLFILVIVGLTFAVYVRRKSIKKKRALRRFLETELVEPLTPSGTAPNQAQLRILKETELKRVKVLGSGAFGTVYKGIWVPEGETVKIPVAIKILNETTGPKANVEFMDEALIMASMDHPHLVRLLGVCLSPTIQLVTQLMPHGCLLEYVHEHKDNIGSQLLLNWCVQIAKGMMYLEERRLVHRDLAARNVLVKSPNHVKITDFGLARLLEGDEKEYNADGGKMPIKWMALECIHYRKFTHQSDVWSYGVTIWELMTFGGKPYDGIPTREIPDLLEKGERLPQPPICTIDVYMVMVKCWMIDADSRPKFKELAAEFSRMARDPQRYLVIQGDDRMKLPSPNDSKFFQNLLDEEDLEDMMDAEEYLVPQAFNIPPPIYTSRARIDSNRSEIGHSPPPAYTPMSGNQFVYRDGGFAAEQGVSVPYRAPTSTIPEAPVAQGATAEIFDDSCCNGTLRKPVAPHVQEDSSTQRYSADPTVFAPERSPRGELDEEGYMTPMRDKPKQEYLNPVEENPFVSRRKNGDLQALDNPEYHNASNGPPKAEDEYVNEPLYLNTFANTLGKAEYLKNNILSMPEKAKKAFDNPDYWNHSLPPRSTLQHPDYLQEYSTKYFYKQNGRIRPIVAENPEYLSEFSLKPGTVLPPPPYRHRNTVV

## C=CC(=O)N1[C@@H]2CC[C@H]1C[C@H](Oc1cc3c(Nc4ccc(Cl)c(Cl)c4F)ncnc3cc1OC)C2 [Example 8]
[1]
  IC50: 0.0035 µM

## C=CC(=O)N1[C@@H]2CC[C@H]1C[C@H](Nc1cc3c(Nc4ccc(Cl)c(Cl)c4F)ncnc3cc1OC)C2 [Example 38]
[2]
  Tmax: 2 h
  half-life: 3.2 h
  AUC(0-t): 122 µM·h
  Cmax: 10.6 µM
[1]
  IC50: 0.003 µM
[3]
  Tumor volume (mm3) (Day 21): 55 ± 13 mm3
  T/C (%): 5.82%
  TGI (%): 106.65%
[4]
  IC50: > 50 µM
  inhibition of CYP enzyme CYP3A4: no inhibitory activity
[5]
  IC50: > 50 µM
[5]; microsomes
  inhibition of CYP enzyme CYP1A2: no inhibitory activity

## C=CC(=O)N1CCC(Oc2cc3c(Nc4ccc(Cl)c(Cl)c4F)ncnc3cc2OC)CC1 [Poziotinib, reference compound]
[2]
  Tmax: 0.25 h
  half-life: 2.3 h
  AUC(0-t): 97.9 µM·h
  Cmax: 17.3 µM
[3]
  Tumor volume (mm3) (Day 21): 57 ± 7 mm3
  T/C (%): 6.05%
  TGI (%): 106.65%
[4]
  IC50: > 50 µM
  inhibition of CYP enzyme CYP3A4: no inhibitory activity
[5]; human liver microsome
  inhibition of CYP enzyme CYP1A2: no inhibitory activity
[5]; human liver microsome, read-out: inhibition of CYP enzyme CYP1A2
  IC50: > 50 µM
